US5734081A, “Arylthio compounds” (Warner-Lambert Company, priority 1995, dated 1998)
pEC50: −log10 of the molar value.

Legend:
HIV-1IIIb [1] = assay: Anti-HIV activity, HIV-1IIIb in CEM cells; format: cell-based; conditions: CEM, HIV-1IIIb, read-out: EC50
Protocol: (§1) Yet another test system employed to determine antiviral activity is called the CEM cell assay.
(§2) T4 lymphocytes (CEM cell line) are exposed to HIV at a virus to cell ratio approximately 0.05, and plated along with noninfected control cells in 96-well microliter plates.
(§3) The candidate agent is dissolved in dimethyl sulfoxide (unless otherwise noted), then diluted 1:200 in cell culture medium. Further dilutions (half-log10) are prepared before adding to an equal volume of medium containing either infected or noninfected cells. Cultures are incubated at 37° in a 5% carbon dioxide atmosphere for 6 or 7 days. The tetrazolium salt, XTT, is added to all wells, and cultures are incubated to allow formazan color development by viable cells (J. National Cancer Institute, 1989;81:577-586). Individual wells are analyzed spectrophotometrically to quantitate formazan production, and in addition are viewed microscopically for detection of viable cells confirmation of protective activity.
(§4) Drug-tested virus-infected cells are compared with drug-treated noninfected cells and with other appropriate controls (untreated infected and untreated noninfected cells, drug-contain wells without cells, etc.) on the same plate. Data are reviewed in comparison with other tests done at the same time and a determination about activity is made.
(§5) The compounds of the invention were also evaluated against various other HIV strains and cell lines utilizing the assay methodology described above. The compounds were additionally evaluated against clinical isolates of HIV strains.

HIV-1 = assay: CEM cell assay, anti-HIV-1 activity; format: cell-based; conditions: Human immunodeficiency virus 1, CCRF-CEM, HIV-1, 6 or 7 days, read-out: EC50 (Effective Concentration which protects cells from viral cytopathic effects)
Procedure, shortened: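 CEM T4 lymphocytes infected with HIV at virus:cell ratio ~0.05, then treated with half-log10 dilutions of compound from DMSO stock and incubated 6 or 7 days at 37° in 5% CO2. Protection from virus-induced cell killing was read by XTT formazan absorbance and microscopy versus drug-treated noninfected cells and untreated controls.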

HIV-1N119 = assay: Anti-HIV activity, HIV-1N119 in CEM cells; format: cell-based; conditions: Human immunodeficiency virus 1, CCRF-CEM
Protocol: as §1, §2, §3, §4, §5

HIV-1WOME = assay: Anti-HIV activity, clinical isolate HIV-1WOME in PBL; format: cell-based; conditions: Human immunodeficiency virus 1
Protocol: as §5

HIV-1RF = assay: Anti-HIV activity, HIV-1RF in CEM cells; format: cell-based; conditions: Human immunodeficiency virus 1, CCRF-CEM; CEM, HIV-1RF; read-out: EC50
Protocol: as §1, §2, §3, §4, §5

SIV = assay: Antiviral activity, SIV in CEM cells; format: cell-based; conditions: Simian immunodeficiency virus, CCRF-CEM, read-out: EC50
HIV-2ROD = assay: Anti-HIV activity, HIV-2ROD in CEM cells; format: cell-based; conditions: Human immunodeficiency virus 2, CCRF-CEM; CEM, HIV-2ROD; read-out: EC50
Protocol: as §1, §2, §3, §4, §5

HIV-1WEIO = assay: Anti-HIV activity, clinical isolate HIV-1WEIO in PBL; format: cell-based; conditions: Human immunodeficiency virus 1
Protocol: as §5

[2] = target: T1, HIV-1 Nucleocapsid Protein (NCp7) (Human immunodeficiency virus type 1 group M subtype B, UniProt P12493); assay: Zinc extrusion assay (TSQ fluorescence) from the zinc fingers of HIV-1 nucleocapsid protein (NCp7); format: biochemical; conditions: 10 μM compound, 2.8 μM NCp7, pH 7.4, 26° C., 90 minutes
T1 construct: The NCp7 protein containing 2 Zn-fingers and 2 Zn ions is incubated with drug
Procedure, shortened: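 Purified NCp7 (2.8 μM, 2 Zn ions) incubated with 10 μM compound and 47 μM TSQ at pH 7.4, 26° C, 90 min; released Zn read by TSQ fluorescence (ex 355, em 400 nm) over time. % extrusion = measured fluorescence over that for full theoretical Zn release (5.6 μM) ×100.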

HIV-1IIIb [3] = assay: Anti-HIV activity, HIV-1IIIb in AA5 cells; format: cell-based; conditions: Human immunodeficiency virus 1; AA5, HIV-1IIIb
Protocol: as §5

[4] = Human immunodeficiency virus 1, CCRF-CEM

Row | SMILES | pEC50 (HIV-1IIIb [1]; [4]) | pEC50 (HIV-1) | pEC50 (HIV-1N119) | pEC50 (HIV-1WOME) | pEC50 (HIV-1RF) | pEC50 (SIV) | pEC50 (HIV-2ROD) | pEC50 (HIV-1WEIO) | % Zinc Extrusion Relative to Control [2] [%] | pEC50 (HIV-1IIIb [3]) | pEC50 (HIV-1IIIb [1])
1 | CC(=O)Nc1ccc(SSc2ccc(NC(C)=O)cc2C(N)=O)c(C(N)=O)c1 [Example 9, 2,2'-Dithiobis(5-acetylamino)benzamide] | 6.40 | 5.28 | 5.64 | 5.24 | 6.40 | 5.68 | 6.00 | 5.12 | 77 | 5.46 | 
2 | NS(=O)(=O)c1ccc(NC(=O)c2ccccc2SSc2ccccc2C(=O)Nc2ccc(S(N)(=O)=O)cc2)cc1 [Example 1] | 5.55 | 5.54 | 5.66 | 5.40 | 5.64 | 4.84 | 5.59 | 5.46 | 20 | 6.05 | 5.34
